Assays:
Assay type in all cases: in vivo
Barnyardgrass [1] = assay: pre-emergence herbicide test; conditions: Echinochloa crus-galli, pre-emergence, 0.25 lb/A; read-out: % plant inhibition
How it was run: (§1)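 Known amounts of active ingredient went into the cover soil over seeds sown in pans, either before or after the layer was spread. An initial 1/4 inch overhead irrigation was given in some cases; otherwise pans were subirrigated. Rating was % inhibition at ~14 days.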

Bedstraw Catchweed [2] = assay: pre-emergence herbicide test; conditions: Galium aparine, pre-emergence, 0.25 lb/A; read-out: % plant inhibition
How it was run: as §1

Birdseye Speedwell [3] = assay: pre-emergence herbicide test; conditions: pre-emergence, 0.25 lb/A; read-out: % plant inhibition
How it was run: as §1

Blackgrass [4] = assay: pre-emergence herbicide test; conditions: Alopecurus myosuroides, pre-emergence, 0.25 lb/A; read-out: % plant inhibition
How it was run: as §1

Cocklebur [5] = assay: pre-emergence herbicide test; conditions: Xanthium strumarium, pre-emergence, 0.25 lb/A; read-out: % plant inhibition
How it was run: as §1

Common Chickweed [6] = assay: pre-emergence herbicide test; conditions: pre-emergence, 0.25 lb/A; read-out: % plant inhibition
How it was run: as §1

Corn [7] = assay: pre-emergence herbicide test; conditions: Zea mays, pre-emergence, 0.25 lb/A; read-out: % plant inhibition
How it was run: as §1

Downy Brome [8] = assay: pre-emergence herbicide test; conditions: Bromus tectorum, pre-emergence, 0.25 lb/A; read-out: % plant inhibition
How it was run: as §1

Giant Foxtail [9] = assay: pre-emergence herbicide test; conditions: Setaria faberi, pre-emergence, 0.25 lb/A; read-out: % plant inhibition
How it was run: as §1

Green Foxtail [10] = assay: pre-emergence herbicide test; conditions: Setaria viridis, pre-emergence; 0.25 lb/A; read-out: % plant inhibition
How it was run: as §1

Morning Glory [11] = assay: pre-emergence herbicide test; conditions: Ipomoea, pre-emergence, 0.25 lb/A; read-out: % plant inhibition
How it was run: as §1

Rape [12] = assay: pre-emergence herbicide test; conditions: pre-emergence, 0.25 lb/A; read-out: % plant inhibition
How it was run: as §1

Seedling Johnsongrass [13] = assay: pre-emergence herbicide test; conditions: Sorghum halepense, pre-emergence, 0.25 lb/A; read-out: % plant inhibition
How it was run: as §1

Soybean [14] = assay: pre-emergence herbicide test; conditions: Glycine max, pre-emergence, 0.25 lb/A; read-out: % plant inhibition
How it was run: as §1

Velvetleaf [15] = assay: pre-emergence herbicide test; conditions: Abutilon theophrasti, pre-emergence, 0.25 lb/A; read-out: % plant inhibition
How it was run: as §1

Wheat [16] = assay: pre-emergence herbicide test; conditions: Triticum aestivum, pre-emergence, 0.25 lb/A; read-out: % plant inhibition
How it was run: as §1

Wild Oats [17] = assay: pre-emergence herbicide test; conditions: Avena fatua, pre-emergence, 0.25 lb/A; read-out: % plant inhibition
How it was run: as §1

Barnyardgrass [18] = assay: post-emergence herbicide test; conditions: Echinochloa crus-galli, post-emergence, 0.25 lb/A; read-out: % plant inhibition
How it was run: (§2)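 Percent inhibition of each species scored after post-emergence spraying of two- to three-week-old greenhouse plants. Spray solution carried about 0.4% by volume emulsifier, delivered by atomizer at 170.3 kPa (10 psig) and 1870 L/Ha total volume.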

Bedstraw Catchweed [19] = assay: post-emergence herbicide test; conditions: Galium aparine, post-emergence, 0.25 lb/A; read-out: % plant inhibition
How it was run: as §2

Birdseye Speedwell [20] = assay: post-emergence herbicide test; conditions: post-emergence, 0.25 lb/A; read-out: % plant inhibition
How it was run: as §2

Blackgrass [21] = assay: post-emergence herbicide test; conditions: Alopecurus myosuroides, post-emergence, 0.25 lb/A; read-out: % plant inhibition
How it was run: as §2

Cocklebur [22] = assay: post-emergence herbicide test; conditions: Xanthium strumarium, post-emergence, 0.25 lb/A; read-out: % plant inhibition
How it was run: as §2

Common Chickweed [23] = assay: post-emergence herbicide test; conditions: post-emergence, 0.25 lb/A; read-out: % plant inhibition
How it was run: as §2

Corn [24] = assay: post-emergence herbicide test; conditions: Zea mays, post-emergence, 0.25 lb/A; read-out: % plant inhibition
How it was run: as §2

Downy Brome [25] = assay: post-emergence herbicide test; conditions: Bromus tectorum, post-emergence, 0.25 lb/A; read-out: % plant inhibition
How it was run: as §2

Giant Foxtail [26] = assay: post-emergence herbicide test; conditions: Setaria faberi, post-emergence, 0.25 lb/A; read-out: % plant inhibition
How it was run: as §2

Green Foxtail [27] = assay: post-emergence herbicide test; conditions: Setaria viridis, post-emergence, 0.25 lb/A; read-out: % plant inhibition
How it was run: as §2

Morning Glory [28] = assay: post-emergence herbicide test; conditions: Ipomoea, post-emergence, 0.25 lb/A; read-out: % plant inhibition
How it was run: as §2

Rape [29] = assay: post-emergence herbicide test; conditions: post-emergence, 0.25 lb/A; read-out: % plant inhibition
How it was run: as §2

Seedling Johnsongrass [30] = assay: post-emergence herbicide test; conditions: Sorghum halepense, post-emergence, 0.25 lb/A; read-out: % plant inhibition
How it was run: as §2

Soybean [31] = assay: post-emergence herbicide test; conditions: Glycine max, post-emergence, 0.25 lb/A; read-out: % plant inhibition
How it was run: as §2

Velvetleaf [32] = assay: post-emergence herbicide test; conditions: Abutilon theophrasti, post-emergence, 0.25 lb/A; read-out: % plant inhibition
How it was run: as §2

Wheat [33] = assay: post-emergence herbicide test; conditions: Triticum aestivum, post-emergence, 0.25 lb/A; read-out: % plant inhibition
How it was run: as §2

Wild Oats [34] = assay: post-emergence herbicide test; conditions: Avena fatua, post-emergence, 0.25 lb/A; read-out: % plant inhibition
How it was run: as §2

Row | Compound | inhibition at 280.212 g/ha (Barnyardgrass [1]) [%] | inhibition at 280.212 g/ha (Bedstraw Catchweed [2]) [%] | inhibition at 280.212 g/ha (Birdseye Speedwell [3]) [%] | inhibition at 280.212 g/ha (Blackgrass [4]) [%] | inhibition at 280.212 g/ha (Cocklebur [5]) [%] | inhibition at 280.212 g/ha (Common Chickweed [6]) [%] | inhibition at 280.212 g/ha (Corn [7]) [%] | inhibition at 280.212 g/ha (Downy Brome [8]) [%] | inhibition at 280.212 g/ha (Giant Foxtail [9]) [%] | inhibition at 280.212 g/ha (Green Foxtail [10]) [%] | inhibition at 280.212 g/ha (Morning Glory [11]) [%] | inhibition at 280.212 g/ha (Rape [12]) [%] | inhibition at 280.212 g/ha (Seedling Johnsongrass [13]) [%] | inhibition at 280.212 g/ha (Soybean [14]) [%] | inhibition at 280.212 g/ha (Velvetleaf [15]) [%] | inhibition at 280.212 g/ha (Wheat [16]) [%] | inhibition at 280.212 g/ha (Wild Oats [17]) [%] | inhibition at 280.212 g/ha (Barnyardgrass [18]) [%] | inhibition at 280.212 g/ha (Bedstraw Catchweed [19]) [%] | inhibition at 280.212 g/ha (Birdseye Speedwell [20]) [%] | other results
1 | CCCCCOC(=O)c1cc(-c2nn(C)c(C(F)(F)F)c2C)c(F)cc1Cl [Compound 48] | 100 | 45 | 100 | 60 | 45 | 95 | 35 | 90 | 99 | 100 | 99 | 5 | 98 | 0 | 95 | 0 | 45 | 60 | 80 | 100 | inhibition at 280.212 g/ha (Blackgrass [21]): 70%; inhibition at 280.212 g/ha (Cocklebur [22]): 90%; inhibition at 280.212 g/ha (Common Chickweed [23]): 65%; inhibition at 280.212 g/ha (Corn [24]): 7%; inhibition at 280.212 g/ha (Downy Brome [25]): 65%; inhibition at 280.212 g/ha (Giant Foxtail [26]): 99%; inhibition at 280.212 g/ha (Green Foxtail [27]): 98%; inhibition at 280.212 g/ha (Morning Glory [28]): 75%; inhibition at 280.212 g/ha (Rape [29]): 60%; inhibition at 280.212 g/ha (Seedling Johnsongrass [30]): 85%; inhibition at 280.212 g/ha (Soybean [31]): 70%; inhibition at 280.212 g/ha (Velvetleaf [32]): 100%; inhibition at 280.212 g/ha (Wheat [33]): 16%; inhibition at 280.212 g/ha (Wild Oats [34]): 75%
2 | Cc1c(-c2cc(CSCC(C)C)c(Cl)cc2F)nn(C)c1C(F)(F)F [Compound 32] | 5 | 5 | 45 | 10 | 25 | 5 | 5 | 0 | 65 | 40 | 10 | 5 | 85 | 8 | 25 | 0 | 0 | 35 | 45 | 90 | inhibition at 280.212 g/ha (Blackgrass [21]): 25%; inhibition at 280.212 g/ha (Cocklebur [22]): 65%; inhibition at 280.212 g/ha (Common Chickweed [23]): 20%; inhibition at 280.212 g/ha (Corn [24]): 15%; inhibition at 280.212 g/ha (Downy Brome [25]): 25%; inhibition at 280.212 g/ha (Giant Foxtail [26]): 45%; inhibition at 280.212 g/ha (Green Foxtail [27]): 65%; inhibition at 280.212 g/ha (Morning Glory [28]): 40%; inhibition at 280.212 g/ha (Rape [29]): 50%; inhibition at 280.212 g/ha (Seedling Johnsongrass [30]): 45%; inhibition at 280.212 g/ha (Soybean [31]): 20%; inhibition at 280.212 g/ha (Velvetleaf [32]): 85%; inhibition at 280.212 g/ha (Wheat [33]): 15%; inhibition at 280.212 g/ha (Wild Oats [34]): 20%
3 | Cc1c(-c2cc(CS)c(Cl)cc2F)nn(C)c1C(F)(F)F [Compound 30] | 70 | 40 | 50 | 20 | 25 | 35 | 15 | 5 | 25 | 98 | 20 | 5 | 95 | 20 | 90 | 0 | 0 | 60 | 40 | 98 | inhibition at 280.212 g/ha (Blackgrass [21]): 30%; inhibition at 280.212 g/ha (Cocklebur [22]): 60%; inhibition at 280.212 g/ha (Common Chickweed [23]): 75%; inhibition at 280.212 g/ha (Corn [24]): 20%; inhibition at 280.212 g/ha (Downy Brome [25]): 25%; inhibition at 280.212 g/ha (Giant Foxtail [26]): 20%; inhibition at 280.212 g/ha (Green Foxtail [27]): 65%; inhibition at 280.212 g/ha (Morning Glory [28]): 65%; inhibition at 280.212 g/ha (Rape [29]): 60%; inhibition at 280.212 g/ha (Seedling Johnsongrass [30]): 70%; inhibition at 280.212 g/ha (Soybean [31]): 65%; inhibition at 280.212 g/ha (Velvetleaf [32]): 85%; inhibition at 280.212 g/ha (Wheat [33]): 15%; inhibition at 280.212 g/ha (Wild Oats [34]): 25%

— patent publication US5672715A, “Herbicidal substituted 3-aryl-pyrazoles” (Monsanto Company, priority 1995, dated 1997)
